According to ChEMBL document CHEMBL2407065, “Discovery of 7-aminofuro[2,3-c]pyridine inhibitors of TAK1: optimization of kinase selectivity and pharmacokinetics” (Bioorg Med Chem Lett, 2013):

What was measured:
[1] = Metabolic stability in human liver microsomes assessed as extraction ratio; type: ADME, Microsome; settings: read-out: ERH
TAK1/TAB1 = TAK1/TAB1 (Homo sapiens, UniProt O43318); test: Inhibition of TAK1-TAB1 (unknown origin) by alphascreen assay in presence of ATP; type: protein-complex assay
Chain of TAK1/TAB1 (Q15750 whole entry, one chain of several): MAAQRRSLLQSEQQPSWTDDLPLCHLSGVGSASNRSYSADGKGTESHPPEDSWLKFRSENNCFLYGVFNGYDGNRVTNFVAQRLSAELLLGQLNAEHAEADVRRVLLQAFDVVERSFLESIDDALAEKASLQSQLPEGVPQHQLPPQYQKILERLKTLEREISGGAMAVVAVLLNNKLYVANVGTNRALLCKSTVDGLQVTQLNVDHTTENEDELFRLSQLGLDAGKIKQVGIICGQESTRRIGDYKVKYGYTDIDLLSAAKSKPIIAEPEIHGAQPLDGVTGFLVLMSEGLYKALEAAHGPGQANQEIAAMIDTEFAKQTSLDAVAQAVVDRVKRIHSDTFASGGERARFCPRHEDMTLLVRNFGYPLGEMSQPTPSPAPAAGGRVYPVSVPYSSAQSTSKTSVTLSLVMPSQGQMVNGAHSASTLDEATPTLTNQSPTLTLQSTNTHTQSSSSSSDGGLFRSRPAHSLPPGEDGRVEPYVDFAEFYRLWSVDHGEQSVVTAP

[2] = molecular target: T1, Mitogen-activated protein kinase kinase kinase 7 (Homo sapiens, UniProt O43318); test: Inhibition of TAK1 in human HCT116 cells assessed as inhibition of TNF-alpha-stimulated JNK phosphorylation; type: cell-based, HCT-116
T1 sequence (O43318 whole entry): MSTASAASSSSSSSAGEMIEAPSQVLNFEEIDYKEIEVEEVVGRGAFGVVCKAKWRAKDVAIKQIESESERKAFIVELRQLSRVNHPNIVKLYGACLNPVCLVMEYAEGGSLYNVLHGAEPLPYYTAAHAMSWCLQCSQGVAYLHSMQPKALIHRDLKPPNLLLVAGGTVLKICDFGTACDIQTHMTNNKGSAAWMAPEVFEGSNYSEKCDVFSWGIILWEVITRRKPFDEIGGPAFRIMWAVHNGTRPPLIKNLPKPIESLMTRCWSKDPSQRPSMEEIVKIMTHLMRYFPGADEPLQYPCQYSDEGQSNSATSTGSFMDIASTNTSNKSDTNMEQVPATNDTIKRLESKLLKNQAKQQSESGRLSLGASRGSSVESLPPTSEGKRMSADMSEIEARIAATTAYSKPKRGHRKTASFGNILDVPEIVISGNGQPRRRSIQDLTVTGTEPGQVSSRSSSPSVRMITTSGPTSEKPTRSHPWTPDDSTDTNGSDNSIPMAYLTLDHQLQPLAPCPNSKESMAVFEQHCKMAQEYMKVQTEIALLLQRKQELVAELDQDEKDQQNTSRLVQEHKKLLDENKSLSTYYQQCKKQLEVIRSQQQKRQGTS

[3] = molecular target: Vascular endothelial growth factor receptor 2 (Homo sapiens, UniProt P35968); test: Inhibition of KDR autophosphorylation overexpressed in VEGF-stimulated human HEK293 cells; type: cell-based
Chain of Vascular endothelial growth factor receptor 2 (P35968 whole entry): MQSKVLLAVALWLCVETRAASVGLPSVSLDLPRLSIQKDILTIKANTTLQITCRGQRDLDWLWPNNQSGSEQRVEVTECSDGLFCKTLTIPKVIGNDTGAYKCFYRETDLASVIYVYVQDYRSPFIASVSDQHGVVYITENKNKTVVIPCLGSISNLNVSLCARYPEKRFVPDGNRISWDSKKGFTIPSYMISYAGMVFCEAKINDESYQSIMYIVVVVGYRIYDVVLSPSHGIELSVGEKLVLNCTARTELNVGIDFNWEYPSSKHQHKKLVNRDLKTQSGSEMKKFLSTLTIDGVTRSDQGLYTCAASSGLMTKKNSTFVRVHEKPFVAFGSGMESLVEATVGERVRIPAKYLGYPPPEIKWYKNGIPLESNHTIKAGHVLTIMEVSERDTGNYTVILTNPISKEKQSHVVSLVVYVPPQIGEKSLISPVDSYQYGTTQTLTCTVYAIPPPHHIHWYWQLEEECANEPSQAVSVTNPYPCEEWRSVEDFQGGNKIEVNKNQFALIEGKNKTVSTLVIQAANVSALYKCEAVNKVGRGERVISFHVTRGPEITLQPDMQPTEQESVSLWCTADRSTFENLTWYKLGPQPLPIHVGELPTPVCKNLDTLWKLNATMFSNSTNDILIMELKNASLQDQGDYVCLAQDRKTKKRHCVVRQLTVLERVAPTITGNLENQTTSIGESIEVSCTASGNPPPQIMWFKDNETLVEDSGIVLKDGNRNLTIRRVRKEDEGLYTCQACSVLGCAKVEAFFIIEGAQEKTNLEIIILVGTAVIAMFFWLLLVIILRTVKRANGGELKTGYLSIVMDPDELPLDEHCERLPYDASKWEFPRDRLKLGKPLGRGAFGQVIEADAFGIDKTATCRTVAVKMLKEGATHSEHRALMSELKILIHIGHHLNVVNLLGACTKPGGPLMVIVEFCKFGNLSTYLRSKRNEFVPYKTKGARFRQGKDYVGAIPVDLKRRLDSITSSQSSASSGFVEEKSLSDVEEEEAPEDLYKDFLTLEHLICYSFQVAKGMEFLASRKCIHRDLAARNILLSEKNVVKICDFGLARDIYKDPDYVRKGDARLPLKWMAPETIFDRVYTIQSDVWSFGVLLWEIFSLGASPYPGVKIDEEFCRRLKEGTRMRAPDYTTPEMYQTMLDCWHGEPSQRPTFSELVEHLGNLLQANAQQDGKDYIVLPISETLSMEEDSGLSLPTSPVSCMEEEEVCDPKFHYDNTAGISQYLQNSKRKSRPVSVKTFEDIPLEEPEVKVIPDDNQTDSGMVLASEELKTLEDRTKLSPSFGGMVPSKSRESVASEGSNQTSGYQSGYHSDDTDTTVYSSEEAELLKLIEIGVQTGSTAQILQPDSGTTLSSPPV

Aurora kinase B = Aurora kinase B (Homo sapiens, UniProt Q96GD4); test: Inhibition of aurora B kinase in human HT-29 cells assessed as inhibition of histone H3 S10 phosphorylation; type: cell-based
Chain of Aurora kinase B (Q96GD4 whole entry): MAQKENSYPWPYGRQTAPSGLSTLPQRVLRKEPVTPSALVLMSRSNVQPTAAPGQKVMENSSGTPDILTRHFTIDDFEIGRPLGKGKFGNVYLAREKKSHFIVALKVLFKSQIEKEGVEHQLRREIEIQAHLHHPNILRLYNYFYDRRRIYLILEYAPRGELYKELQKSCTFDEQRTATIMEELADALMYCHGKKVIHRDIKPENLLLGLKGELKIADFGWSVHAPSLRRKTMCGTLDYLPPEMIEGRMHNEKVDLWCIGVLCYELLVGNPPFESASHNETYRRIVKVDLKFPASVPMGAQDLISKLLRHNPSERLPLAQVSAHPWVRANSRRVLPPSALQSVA

[4] = Metabolic stability in mouse liver microsomes assessed as extraction ratio; type: ADME, Microsome; settings: read-out: ERH
[5] = Cmax in mouse at 20 mg/kg, po; type: ADME, organism-based; parameters: dose 20 mg/kg, route oral; settings: in vivo
[6] = Volume of distribution at steady state in mouse at 2 mg/kg, iv; type: ADME, organism-based; parameters: dose 2 mg/kg, route intravenous; settings: in vivo, read-out: Vdss
[7] = AUC (0 to infinity) in mouse at 20 mg/kg, po; type: ADME, organism-based; parameters: time infinity, dose 20 mg/kg, route oral; settings: plasma
[8] = AUC (0 to infinity) in mouse at 2 mg/kg, iv; type: ADME, organism-based; parameters: dose 2 mg/kg, route intravenous, time infinity; settings: plasma
[9] = Clearance in mouse at 2 mg/kg, iv; type: ADME, organism-based; parameters: dose 2 mg/kg, route intravenous; settings: in vivo
[10] = Half life in mouse at 2 mg/kg, iv; type: ADME, organism-based; parameters: dose 2 mg/kg, route intravenous; settings: in vivo
[11] = Oral bioavailability in mouse at 20 mg/kg; type: ADME, organism-based; settings: in vivo
[12] = molecular target: T1, Mitogen-activated protein kinase kinase kinase 7; test: Inhibition of TAK1 in human TOV21G cells assessed as inhibition of JNK phosphorylation
[13] = Antitumor activity against human TOV21G cells xenografted in CD-1 nude mouse assessed as tumor growth inhibition at 100 mg/kg, sc qd administered for 14 days measured on day 15 relative to vehicle-treated control; type: functional; settings: route subcutaneous, read-out: TGI
[14] = AUC (0 to infinity) in mouse at 100 mg/kg, po; type: ADME, organism-based; parameters: time infinity, dose 100 mg/kg, route oral; settings: plasma
[15] = Oral bioavailability in mouse at 100 mg/kg; type: ADME, organism-based; settings: in vivo
[16] = Cmax in mouse at 100 mg/kg, po; type: ADME, organism-based; parameters: dose 100 mg/kg, route oral; settings: in vivo
[17] = Tmax in mouse at 20 mg/kg, po; type: ADME, organism-based; parameters: dose 20 mg/kg, route oral; settings: in vivo
[18] = Drug metabolism in mouse liver microsomes assessed as M+176 formation; type: ADME, Microsome
Liver microsomes = test: Drug metabolism in human liver microsomes assessed as M+176 formation; type: ADME, Microsome
[19] = AUC (0 to last) in mouse at 20 mg/kg, po; type: ADME, organism-based; parameters: time 0 - last, dose 20 mg/kg, route oral; settings: plasma

SMILES	IC50 (TAK1/TAB1) [nM]	IC50 [2] [nM]	IC50 [3] [nM]	IC50 (Aurora kinase B) [nM]	other results
Nc1ncc(-c2cnn([C@H]3CC[C@H](O)CC3)c2)c2c(CF)c(-c3cccc4nnsc34)oc12	17	45	18300	1500	hepatic extraction ratio [1]: 0.49; hepatic extraction ratio [4]: 0.43
Nc1ncc(-c2cnn([C@H]3CC[C@H](O)CC3)c2)c2c(C(F)F)c(-c3cccc4nnsc34)oc12	14	20	> 20000	1700	Cmax [5]: 18.6 µM; Vd [6]: 1 L/kg; hepatic extraction ratio [1]: 0.48; AUC(0-inf) [7]: 33700 ng·h/mL; AUC(0-inf) [8]: 3440 ng·h/mL; clearance [9]: 10 mL/min/kg; half-life [10]: 1.8 h; hepatic extraction ratio [4]: 0.39; bioavailability [11]: 98%
Nc1ncc(-c2cnn([C@H]3CC[C@H](O)CC3)c2)c2c(Cl)c(-c3cccc4nnsc34)oc12	–	18	> 20000	6500	IC50 [12]: 28 nM; Cmax [5]: 3.8 µM; Vd [6]: 2.1 L/kg; inhibition in vivo at 100 mg/kg [13]: 62%; hepatic extraction ratio [1]: 0.4; AUC(0-inf) [7]: 8770 ng·h/mL; AUC(0-inf) [8]: 1700 ng·h/mL; AUC(0-inf) [14]: 26800 ng·h/mL; clearance [9]: 20 mL/min/kg; half-life [10]: 2.1 h; hepatic extraction ratio [4]: 0.39; bioavailability [11]: 52%; bioavailability [15]: 32%; Cmax [16]: 7.1 µM
Nc1ncc(-c2cnn([C@H]3CC[C@H](O)CC3)c2)c2cc(-c3cccc4nnsc34)oc12	9	15	650	160	Cmax [5]: 7.8 µM; Vd [6]: 4.1 L/kg; Tmax [17]: 8 h; hepatic extraction ratio [1]: 0.48; AUC(0-inf) [7]: 16000 ng·h/mL; AUC(0-inf) [8]: 477 ng·h/mL; clearance [9]: 70 mL/min/kg; half-life [10]: 1.6 h; hepatic extraction ratio [4]: 0.63
Cc1c(-c2cnc(N)c3oc(-c4csc5cnccc45)cc23)cnn1C	4100	3000	19900	17400	–
Nc1ncc(-c2cnn([C@H]3CC[C@H](O)CC3)c2)c2c(-c3cccnc3)c(-c3cccc4nnsc34)oc12	110	130	8200	6900	hepatic extraction ratio [1]: 0.41; hepatic extraction ratio [4]: 0.48
Nc1ncc(-c2ccoc2)c2cc(-c3csc4cnccc34)oc12	560	–	–	–	–
Nc1ncc(-c2cscn2)c2cc(-c3csc4cnccc34)oc12	1400	–	–	–	–
Cc1ccc(-c2cnc(N)c3oc(-c4csc5cnccc45)cc23)s1	4600	–	–	–	–
COCC#Cc1cnc(N)c2oc(-c3csc4cnccc34)cc12	2900	–	–	–	–
Nc1ncc(-c2cccnc2)c2cc(-c3csc4cnccc34)oc12	3800	–	–	–	–
Cn1cc(-c2cnc(N)c3oc(-c4csc5cnccc45)cc23)c(C#N)n1	22800	> 10000	–	–	–
CC(=O)N1CCC(n2cc(-c3cnc(N)c4oc(-c5csc6cnccc56)cc34)cn2)CC1	–	–	–	–	Cmax [5]: 0.03 µM; Vd [6]: 2.5 L/kg; Drug metabolism [18]: Active; Drug metabolism (Liver microsomes): Active; AUC(0-inf) [8]: 187 ng·h/mL; clearance [9]: 178 mL/min/kg; AUC(0-t) [19]: 21 ng·h/mL; half-life [10]: 0.1 h; bioavailability [11]: 1%
Nc1ncc(-c2cnn([C@H]3CC[C@H](O)CC3)c2)c2c(-c3cncs3)c(-c3cccc4nnsc34)oc12	31	43	760	1700	hepatic extraction ratio [1]: 0.55; hepatic extraction ratio [4]: 0.53
Cn1ccc(-c2cnc(N)c3oc(-c4csc5cnccc45)cc23)c1	4900	–	–	–	–
Nc1ncc(C2=CCNCC2)c2cc(-c3csc4cnccc34)oc12	23600	–	–	–	–
Cc1nn(C)cc1-c1cnc(N)c2oc(-c3csc4cnccc34)cc12	3500	1000	> 20000	> 20000	–
Cc1ccc(-c2cnc(N)c3oc(-c4csc5cnccc45)cc23)o1	2100	–	–	–	–
Cc1nn(C)c(C)c1-c1cnc(N)c2oc(-c3csc4cnccc34)cc12	23900	4400	–	–	–
Nc1ncc(-c2cnn([C@H]3CC[C@H](O)CC3)c2)c2cc(-c3cccc4cnsc34)oc12	–	–	–	–	Cmax [5]: 1.1 µM; Vd [6]: 12 L/kg; AUC(0-inf) [7]: 821 ng·h/mL; AUC(0-inf) [8]: 299 ng·h/mL; clearance [9]: 111 mL/min/kg; half-life [10]: 3.3 h; bioavailability [11]: 27%
Nc1ncc(-c2ccsc2)c2cc(-c3csc4cnccc34)oc12	2200	–	–	–	–
COc1nn(C)cc1-c1cnc(N)c2oc(-c3csc4cnccc34)cc12	600	1700	> 20000	> 20000	–
Cn1cnc(-c2cnc(N)c3oc(-c4csc5cnccc45)cc23)c1	12700	–	–	–	–
Cc1ncc(-c2cnc(N)c3oc(-c4csc5cnccc45)cc23)s1	230	–	–	–	–
Cn1cc(-c2cnc(N)c3oc(-c4csc5cnccc45)cc23)cn1	150	190	3400	3000	–
N#Cc1c(-c2cccc3nnsc23)oc2c(N)ncc(-c3cnn([C@H]4CC[C@H](O)CC4)c3)c12	160	17	> 20000	> 10000	hepatic extraction ratio [1]: 0.38; hepatic extraction ratio [4]: 0.43
Nc1ncc(-c2ccccc2)c2cc(-c3csc4cnccc34)oc12	3200	–	–	–	–
